Nine compounds from BindingDB's records for aid1799746 (Csar, 2012) can be followed below.

pKd: −log10 of the molar value.

For the experiment, the target named is T1, UDP-3-O-acyl-N-acetylglucosamine deacetylase (Aquifex aeolicus (strain VF5), UniProt O67648).
T1 sequence (O67648 whole entry): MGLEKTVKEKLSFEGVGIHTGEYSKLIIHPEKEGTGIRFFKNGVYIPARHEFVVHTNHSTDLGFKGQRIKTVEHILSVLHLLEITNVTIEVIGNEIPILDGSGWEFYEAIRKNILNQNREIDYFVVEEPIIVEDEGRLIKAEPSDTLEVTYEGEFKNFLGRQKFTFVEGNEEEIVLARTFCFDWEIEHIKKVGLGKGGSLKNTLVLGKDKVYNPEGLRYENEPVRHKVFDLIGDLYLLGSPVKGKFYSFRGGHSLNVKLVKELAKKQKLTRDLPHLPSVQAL
The experiment is described as follows: ITC. To be noted: pH 7; 25 °C.
What is called pKd is the Kd on a negative log10 scale, so that one unit is a factor of ten. A low value points to a large Kd. `NC[C@H](NC(=O)c1ccc(-c2ccccc2)cc1)C(=O)NO` [CS249] had a pKd of 6.14.

As to `NC[C@H](NC(=O)c1ccc(-c2ccc(Br)cc2)cc1)C(=O)NO` [CS250], the pKd was 6.62.

In turn, `C[C@@H](O)[C@H](NC(=O)c1ccc(-c2ccc(Br)cc2)cc1)C(=O)NO` [CS258] had a negative logarithm of the Kd (pKd) of 6.91.

On to `C[C@@H](O)[C@H](NC(=O)c1ccc(C#Cc2ccccc2)cc1)C(=O)NO` [CS259], for which the pKd is 5.92.

Compound `C[C@@H](O)[C@H](NC(=O)c1ccc(-c2ccccc2)cc1)C(=O)NO` [CS263] had a pKd of 6.65.

`O=C(NO)[C@H]1COC(c2ccc(F)c(C(F)(F)F)c2)=N1` [CS271] gave a pKd of 5.40.

Take `O=C(NO)[C@H]1COC(c2cc3cc(F)ccc3[nH]2)=N1` [CS272]: the pKd was 5.65.

Consider `O=C(NO)c1csc(-c2ccc(F)c(C(F)(F)F)c2)n1` [CS277], for which the pKd was 5.46.

`O=C(NO)[C@H]1COC(c2ccc(F)cc2)=N1` [CS279]: the pKd is 4.83.
